This note sets out measurements from publication PMC11558679, “Artificial Zymogen Based on Protein–Polymer Hybrids” (Biomacromolecules, 2024).

Read-outs that look alike come from different tables or passages of the source. Square brackets hold non-standard residues; d marks the D form. Peptide text beside a SMILES is read from it. * marks the point of attachment. OEGMA = oligo(ethylene glycol) methacrylate; PEG4 = NCCOCCOCCOCCOCCC(=O)O; Tos = Cc1ccc(S(=O)(=O)*)cc1; Isobutyryl = CC(C)C(=O)*; NHBn = c1ccc(CN*)cc1; Sar = CNCC(=O)O

Format in all cases: biochemical, bovine
The target in one test is T1, native trypsin (Bos taurus, UniProt P00760).
T1 construct: purchased Sigma-Aldrich; host or cells: bovine pancreas
T1 sequence (P00760 24-246): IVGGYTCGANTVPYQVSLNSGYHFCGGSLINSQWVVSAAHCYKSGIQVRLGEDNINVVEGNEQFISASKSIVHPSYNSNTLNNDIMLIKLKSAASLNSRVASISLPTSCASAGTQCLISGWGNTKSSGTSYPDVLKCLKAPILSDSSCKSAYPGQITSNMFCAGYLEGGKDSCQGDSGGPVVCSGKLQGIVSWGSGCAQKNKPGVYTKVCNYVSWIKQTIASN
As to the kind of experiment: Inhibition of native trypsin by model peptide inhibitor and macromonomer. As to conditions: for Ki: substrate Tos-GPR-pNA, 100 mM Tris-HCl and 20 mM CaCl2 (pH 8.0), 37 °C, [TR]0 = 8.4 nM, from secondary plot KM/Vmax app vs [I]0; for Km: read-out: apparent KM. The text has this: (§1) Co mparison of K M of peptide substrates and K i of model peptide inhibitors and ma cro mono mers against native trypsin and chymotrypsin.
(§2) By observing the initial rate of enzyme activity in the presence of th e peptide inhibitor or macromonomer, the K i value of the inhibitor peptide and macromonomers can be determined (Figures S9 for native trypsin,and S14 for native ch ymotrypsin). The apparent KM and Vmax values are obtained b y si multaneousl y mixing nat ive trypsin or ch ymotr ypsin, a peptide substrat e, and a peptide inhibitor, and then monitoring the pNA produced b y enzymatically catal yzed hydrol ysis of the p eptide substrate. The apparent KM and Vmax values were calculated using EnzFitter with Michaelis-Menten curve fitting of substrate against initial velocity plots ( Fi g u re S10 and S12 and Table S1 and S2 for native trypsin, and Figure S15 and S17 and T ab l e S3 and S4 for native ch ymotr ypsin ). The plot of K M ass/Vma x app versus [I]0 or [macromonomers]0 yields a straight line with a y-intercept of K M/Vmax and a slope of K M/(Vmax ·Ki) (Figures S11 and S13 for native tr ypsin and S1 6 and S18 for native ch ymotrypsin, respsctiver y ). The inhibition constant (Ki) of the peptide inhibi tor or macromonomer was calculated b y simply dividing the y -inter cept […]
(1 picture or pasted object on this page, not shown here)
Table S1. Apparent KM a nd Vma x values for native trypsin incubated with Tos-GPR-pNA (substrate) and Tos-GPRP -NHBzl (inhibitor) at 37 °C in 100 mM Tris-HCl and 20 mM CaCl2 buffer (pH 8.0) […]
Buffer: 100 mM Tris-H Cl a nd 20 mM Ca Cl2 (pH 8.0) at 37 °C, [TR]0 = 8.4 nM, [TosGPRpNA]0 = 0 – 302 µ M a nd [TosGP RP Bzl]0 = 0 – 500 µM, Monitor Abs at 412 nm.
Figure S11. Secondary plot with calculated apparent K M and Vmax values were used to determine inhibition constants of the peptide inhibitor towards native trypsin.
Figure S12. Michaelis-Menten Plots adding a the macromonomer containing a CT -cleavable and a TR-inhibiting peptides (T o s GPRPr o -PEG4-AAPFAA OE GMA) to a native trypsin solution.
Table S2. Apparent KM a nd Vma x values for native trypsin incubated with Tos-GPR-pNA (substrate) and the macromonomer containing a CT -cleavable and a TR-inhibiting peptides (TosGPRPro-PEG4-AAPFAA OEGMA) at 37 °C in 100 mM Tris -HCl and 20 mM CaCl2 buffer (pH 8.0) .
Buffer: 100 mM Tris-H Cl a nd 20 mM Ca Cl2 (pH 8.0) at 37 °C, [TR]0 = 8.4 nM, [TosGPRpNA]0 = 0 – 241 µ M a nd [ macro mono mer]0 = 0 – 200 µM, Monitor Abs at 412 nm.

For the next test, the target named is T2, native chymotrypsin (Bos taurus, UniProt P00766).
T2 construct: α-Chymotrypsin from bovine pancreas, Type II (CT); purchased Sigma-Aldrich; host or cells: bovine pancreas
The experiment in a line: Inhibition of native chymotrypsin by model peptide inhibitor and macromonomer. As to conditions: for KM/Vmax / apparent Vmax / kcat / kcat/KM / Km: [sucAAPFpNA]0 = 0–768 µM; for Km: read-out: apparent KM.
Source text: as §1, §2
Figure S1 5 .Michaelis -Menten Plots adding a peptide inhibitor to a native c hymot r yps i n s ol ut i on.
Table S3. Apparent KM a nd Vma x values for native […] incubated with suc-AAPF -pNA ( subst r at e) and IB -AAPFSar-OMe (inhibitor) at 37 °C in 100 mM sodium phosphate buffer (pH 8.0) […]
Buffer: 100 mM sodium phosphate (pH 8.0) at 37 °C, [CT]0 = 40 nM, [sucAAPFpNA]0 = 0 – 768 µ M and [IBAAPFSarOMe]0 = 0 – 500 µM, Monitor Abs at 412 nm.
Table S4. Apparent KM a nd Vma x values for native […] incubated with suc-AAPF -pNA ( subst r at e) and macromonomer containing a TR cleavable and CT inhibiting peptides
(IBAAPFSarPEG4GPRGGOEGMA) at 37 °C in 100 mM sodium phosphate buffer (pH 8.0) . […]
macro mono mer]0 = 0 – 400 µM, Monitor Abs at 412 nm.
Figure S18. Michaelis -Menten Plots adding a macromonomer containing a TR cleavable and CT inhibiting peptides (IBAAPFSarPEG4GPRGGOEGMA) to a native chymotrypsin solution.

Test [1] is described as follows: Biocatalytic assay (Michaelis–Menten) of TR and TR hybrids with Tos-Gly-Pro-Arg-pNA. As to conditions: rounded value in comparison with Ki; read-out: KM of the peptide substrate for native TR. How it is done: N-Tosyl-L-Gly-L-Pro-L-Arg-p-nitroanilide was used as a substrate for enzyme bioactivity assays. In a cuvette, 0.1 M Tris HCl and 20 mM calcium chloride buffer (890–990 μL, pH 8.0), substrate (0–100 μL, 2 mg/mL in DMSO), and enzyme (10 μL, 0.02 mg TR/mL in 100 mM Tris–HCl and 20 mM calcium chloride (pH 8.0), 8.4 nM as final concentration) were mixed for enzyme bioactivity assays. The rate of hydrolysis was determined by recording the increase in absorbance at 412 nm for the first 45 s after mixing. KM and kcat values were calculated using Enzfitter software when plotting substrate concentration versus initial hydrolysis velocity. […]
Table S5. Char acterization and enzymatic activity of TR-pCBMA and inhibited pro- T R pol ymer h ybr i ds with different linkers between the inhibitory and cleavable peptide moieties.
SEC-M ALLS anal ysi s Michaelis-Menten parameters d
Mnb Mwb Đb DPc KM kcat kcat/KM samples kg mol-1 kg mol-1 (CBM A/inhibitor) (µM) (s-1) (µM-1 s-1) […]
SEC -MALLS and 1H NMR spectra. d conditions: [TR]0 = 8.4 nM, [Tos-GPR-pNA]0 = 0 - 302 µM, buffer 100 mM Tris-HCl and 20 mM CaCl2 (pH 8.0) at 37 °C. […]

[2] abbreviates: [macromonomer]0 = 50 µM, [TosGPRpNA]0 = 0–241 µM.
The mark [3] stands for this setting: [macromonomer]0 = 100 µM, [TosGPRpNA]0 = 0–241 µM.
Where [4] appears, read: [macromonomer]0 = 150 µM, [TosGPRpNA]0 = 0–241 µM.
[5] abbreviates: [macromonomer]0 = 200 µM, [TosGPRpNA]0 = 0–241 µM.

With `Cc1ccc(S(=O)(=O)NCC(=O)N2CCC[C@H]2C(=O)N[C@@H](CCCNC(=N)N)C(=O)N2CCC[C@H]2C(=O)NCc2ccccc2)cc1` [Tos-Gly-Pro-Arg-Pro-NHBzl] (Tos-GPRP-NHBn), the KM/Vmax amounted to 48.3 ± 4.1 s on native trypsin ([inhibitor]0 = 125 µM, [TosGPRpNA]0 = 0–302 µM); 56.3 ± 5.0 s on native trypsin ([inhibitor]0 = 250 µM, [TosGPRpNA]0 = 0–302 µM); 73.4 ± 3.7 s at native trypsin ([inhibitor]0 = 375 µM, [TosGPRpNA]0 = 0–302 µM); 84.3 ± 6.0 s at native trypsin ([inhibitor]0 = 500 µM, [TosGPRpNA]0 = 0–302 µM). This compound had a Ki on native trypsin (native TR) of 430 µM.
For `COC(=O)CN(C)C(=O)[C@H](Cc1ccccc1)NC(=O)[C@@H]1CCCN1C(=O)[C@H](C)NC(=O)[C@H](C)NC(=O)C(C)C` [isobutyryl-Ala-Ala-Pro-Phe-Sar-OMe] (Isobutyryl-AAPF[Sar]-OMe), on native chymotrypsin, the Ki was found to be 660 µM. In addition, the KM/Vmax on native chymotrypsin ([inhibitor]0 = 125 µM) turned out to be 62.9 ± 6.8 s; at native chymotrypsin ([inhibitor]0 = 250 µM), 75.9 ± 11.5 s; on native chymotrypsin ([inhibitor]0 = 375 µM) it was 84.8 ± 12.7 s; on native chymotrypsin ([inhibitor]0 = 500 µM), 99.6 ± 11.7 s.
On to “IB-Ala-Ala-Pro-Phe-Sar-PEG4-Gly-Pro-Arg-Gly-Gly-OEGMA [IBAAPFSarPEG4GPRGGOEGMA]”, for which, on native chymotrypsin ([macromonomer]0 = 100 µM), the KM/Vmax turned out to be 61.8 ± 6.2 s, the “apparent Vmax” value came to 1.25 ± 0.03 µM/s, the catalytic constant (kcat) (usually the maximal rate divided by the concentration of active sites) stood at 34.8 ± 0.8 s⁻¹ and the kcat/KM (commonly the turnover number divided by the Michaelis constant) turned out to be 0.45 ± 0.05 µM⁻¹ s⁻¹. Also, the Km – broadly, the concentration of substrate that gives half-maximal velocity – on native chymotrypsin ([macromonomer]0 = 100 µM) turned out to be 77.5 ± 7.6 µM. Moreover, at native chymotrypsin ([macromonomer]0 = 200 µM), the KM/Vmax was determined as 65.3 ± 6.9 s, the “apparent Vmax” value was 1.25 ± 0.03 µM/s, the kcat was found to be 34.9 ± 0.8 s⁻¹ and the kcat/KM is 0.43 ± 0.04 µM⁻¹ s⁻¹. Besides, on native chymotrypsin ([macromonomer]0 = 200 µM), the Km worked out at 82.1 ± 8.4 µM. Besides, at native chymotrypsin ([macromonomer]0 = 300 µM), the KM/Vmax came out at 72.9 ± 7.1 s, the “apparent Vmax” value was determined as 1.18 ± 0.03 µM/s, the kcat was found to be 32.8 ± 0.7 s⁻¹ and the kcat/KM was 0.38 ± 0.73 µM⁻¹ s⁻¹. For the same compound, the Km at native chymotrypsin ([macromonomer]0 = 300 µM) amounted to 86.1 ± 8.1 µM. Further, at native chymotrypsin ([macromonomer]0 = 400 µM), the KM/Vmax amounted to 89.4 ± 11.8 s, the “apparent Vmax” value was determined as 1.12 ± 0.04 µM/s, the turnover number (kcat) is 31.0 ± 1.0 s⁻¹ and the kcat/KM was determined as 0.31 ± 0.04 µM⁻¹ s⁻¹. In addition, at native chymotrypsin ([macromonomer]0 = 400 µM), the Km came out at 99.7 ± 12.6 µM. The “Ki relative to KM (90 μM) of suc-Ala-Ala-Pro-Phe-pNA” value at native chymotrypsin (native CT) stood at 2.8 fold. Moreover, in the test with native chymotrypsin (native CT, substrate suc-AAPF-pNA, 100 mM sodium phosphate (pH 8.0), 37 °C, [CT]0 = 40 nM, from secondary plot KM/Vmax app vs [I]0, read-out: Ki), the Ki stood at 260 µM.
As for “N-Tosyl-glycyl-L-prolyl-L-arginine p-nitroanilide acetate salt [Tos-Gly-Pro-Arg-pNA, reference compound]”, in test [1], the Km came out at 20 µM.
In the test with native trypsin (native TR), “Tos-Gly-Pro-Arg-Pro-PEG4-Ala-Ala-Pro-Phe-Ala-Ala-OEGMA (Tos-GPRP[PEG4]AAPFAA-{OEGMA}) [TosGPRPro-PEG4-AAPFAA OEGMA]” came in with a Ki of 150 µM.
For the compound “Tos-Gly-Pro-Arg-Pro-PEG4-Ala-Ala-Pro-Phe-Ala-Ala-OEGMA [TosGPRPro-PEG4-AAPFAA OEGMA]”, on native trypsin (setting [2]), the KM/Vmax was 62.9 ± 7.3 s, the “apparent Vmax” value was 0.45 ± 0.02 µM/s, the kcat came to 53.4 ± 2.3 s⁻¹ and the kcat/KM turned out to be 1.89 ± 0.31 µM⁻¹ s⁻¹. Besides, the Km at native trypsin (setting [2]) is 28.2 ± 4.5 µM. Moreover, on native trypsin (setting [3]), the KM/Vmax is listed as 77.9 ± 6.3 s, the “apparent Vmax” value amounted to 0.24 ± 0.01 µM/s, the kcat is 28.7 ± 0.7 s⁻¹ and the kcat/KM was found to be 1.53 ± 0.17 µM⁻¹ s⁻¹. In addition, the Km at native trypsin (setting [3]) was determined as 18.8 ± 2.1 µM. Also, at native trypsin (setting [4]), the KM/Vmax came to 86.3 ± 7.8 s, the “apparent Vmax” value is 0.31 ± 0.01 µM/s, the catalytic constant (kcat) stood at 36.5 ± 1.4 s⁻¹ and the kcat/KM worked out at 1.38 ± 0.18 µM⁻¹ s⁻¹. Further, the Km at native trypsin (setting [4]) is 26.4 ± 3.2 µM. In addition, at native trypsin (setting [5]), the KM/Vmax is listed as 97.7 ± 12.1 s, the “apparent Vmax” value was 0.36 ± 0.02 µM/s, the kcat is 43.3 ± 2.1 s⁻¹ and the kcat/KM amounted to 1.22 ± 0.21 µM⁻¹ s⁻¹. Further, on native trypsin (setting [5]), the Km was 35.5 ± 6 µM. Also, the “Ki relative to KM (20 μM) of Tos-Gly-Pro-Arg-pNA” value on native trypsin (native TR) is given as about 7.5 fold.
